US20220127297A1, “Novel Antibacterial 3"-Derivatives Of 4,6-Disubstituted 2,5-Dideoxystreptamine Aminoglycoside Antibiotics” (AGILeBiotics B.V., priority 2018, published 2022)
In brackets after ≈: the same amount, converted by molar mass. Like-named read-outs stand apart in the source and are kept apart here.

How the values were obtained:
Test in all cases: MIC 90, broth micro-dilution, ATCC strains
S. aureus ATCC 29213 = assay type: cell-based, Staphylococcus aureus
From the text: (§1) 3.3 Protocol for MIC Determination (ATCC Strains)
(§2) Tested reference compounds. Amikacin sulfate (Cat. No. 01693, Chem-Impex), Gentamicin sulfate (Cat. No. G4918, Sigma Aldrich), Azithromycin (Cat. No. 1046056, USP), Ceftazidime Pentahydrate (Cat. No. 1098130, USP), Ciprofloxacin (Cat. No. 1134313, USP), Meropenem (Cat. No. 1392454, USP), Rifampicin (Cat. No. R0079, TCI), Tobramycin (Cat. No. 1667508, USP), Vancomycin (Cat. No. 1709007 USP).
(§3) Microbial strains. Staphylococcus aureus ATCC 29213, Staphylococcus aureus ATCC BAA-1717, Escherichia coli ATCC BAA-1025, Klebsiella pneumoniae ATCC BAA-1705, Klebsiella pneumoniae ATCC BAA-2524, Pseudomonas aeruginosa ATCC 27853, Pseudomonas aeruginosa ATCC BAA-2108, Acinetobacter baumannii ATCC BAA-1800.
(§4) Culture media and equipment. BBL™ Mueller Hinton Broth (REF 275730, Lot. 7009699, Becton Dickinson), Mueller Hinton Agar 2 (Ref. No. 97580-500G-F, Lot. No. BCBV4646, Sigma), Dulbecco's Modified Eagle's Medium (DMEM) (Cat. No. 41966-029, Gibco), Minimum Essential Medium (MEM) (Cat. No. 42360-024, Gibco), Fetal bovine serum (FBS) (Cat. No. F7524, Sigma), Non-essential amino acids (NEAA) (100×, Cat. No. 11140-035, Gibco), Sodium Pyruvate (100 mM, 100×, Cat. No. 11360-039, Gibco), Staurosporine (Cat. No. B50188, Biotrend), Cellstar 96-well plates U-bottom (Cat. No. 650180, Lot. No. E14123EB, Greiner Bio-one), CellTiter-Glo (Cat. No. G7573, Promega), 96-well plate V-bottom (Cat. No. 651201, Greiner), 96-well clear plate, U-bottom, (Cat. No. 650180, Greiner), 96-well white plate with clear bottom (Cat. No. 655098, Greiner), 96-well deep well plate 1 mL (Cat. No. 278606, Nunc), Sodium Pyruvate (100 mM, 100×, Gibco, Cat #11360-039), Incubator (Binder), Laminar flow (Thermo Scientific), BioPhotometer (Eppendorf); DEN-1B (McFarland Densitometer, Biosan); McFarland standards (polymer microparticle suspension, Biosan).
(§5) Compound preparation. The test compounds and reference antibiotics were prepared according to CLSI guidelines (Clinical and Laboratory Standards Institute (CLSI); Methods for dilution antimicrobial susceptibility tests for bacteria that grow aerobically; approved standard—ninth edition, M07-A9, Vol. 32, No. 2, 2012) as 5 mg/mL stock solutions in DMSO. Out of these DMSO solutions, 43.5 μL was transferred to 1656.5 μL of MH media in a deep well plate. Out of these working solutions 100 μL was transferred to wells in the third column of 96-well plates. Plates were previously filled with 50 μL of MH media in all wells except for the wells in the third column. After compound and antibiotic addition, 50 μL was transferred from the third to the fourth column, then from the fourth to the fifth and so on. In this manner, the compounds and antibiotics were plated in 96-well plate in serial two-fold dilutions giving a final concentration range of 64-0.125 μg/mL.
(§6) Preparation of microorganisms. Designations used for clinical isolates were from the Fidelta strain collection bank. Microorganisms used were all revived from skim milk storage at −70° C. by plating them on MH agar plates. The following day the single colony of each microorganism was again streaked on fresh agar plates. The next day, using the direct colony suspension method, broth solutions that achieve turbidity equivalent to 0.5 McFarland standard for each microorganism were prepared. […] Out of these suspensions, actual inoculums were prepared by diluting them 100× with MH media giving a final microorganism count of 2-8×10^5 CFU/mL. For each strain of microorganisms, 20 mL of these inoculum solutions were prepared. From the second to the twelfth column of 96-well plates, 50 μL of these solutions were transferred per well. To the first column, 50 μL per well of pure growth media was added. In this manner the first column was used as sterility control of media, the second column was used as control of microorganism's growth and the rest of the plate was used for MIC determination. All plates were incubated for 16-24 h at 37° C. […]

P. aeruginosa ATCC 27853 = assay type: cell-based, Pseudomonas aeruginosa
From the text: as §1, §2, §3, §4, §5, §6

[1] = test system: E. coli ATCC BAA-1025 (= BL 21); assay type: cell-based, Escherichia coli
From the text: as §1, §2, §3, §4, §5, §6

[2] = Staphylococcus aureus, ATCC29213, read-out: MIC 90
[3] = Pseudomonas aeruginosa, ATCC27853, read-out: MIC 90
[4] = Escherichia coli, ATCCBAA1025, read-out: MIC 90

Compound `N=C(N)NC1[C@@H](O)C(OC2[C@@H](F)[C@H](O[C@H]3OC(CN)[C@@H](O)[C@H](O)C3N)C(N)C[C@H]2NC(=O)[C@@H](O)CCN)O[C@H](CO)[C@H]1O` (stereo partly drawn) [ABX4004, 3′epi-KanaB-AHB-F-Gua] has an MIC90 (S. aureus ATCC 29213; [2]) of 2 µM (≈ 1.26 µg/mL), an MIC90 (P. aeruginosa ATCC 27853; [3]) of 4 µM (≈ 2.51 µg/mL) and an MIC90 [1, 4] of 2 µM (≈ 1.26 µg/mL).
For `NCC[C@H](O)C(=O)N[C@@H]1CC(N)[C@@H](O[C@H]2OC(CN)[C@@H](O)[C@@H](O)C2N)[C@H](O)C1OC1O[C@H](CO)[C@@H](O)C(N)[C@H]1O` (stereo partly drawn) [ABX4002, 3′Epi-KanaB-AHB], the “MIC90” value (S. aureus ATCC 29213) was 2 µM (≈ 1.17 µg/mL), the “MIC90” value (P. aeruginosa ATCC 27853) was 4 µM (≈ 2.34 µg/mL) and the “MIC90” value [1] was 8 µM (≈ 4.68 µg/mL).
With `N=C(N)NC1[C@@H](O)C(OC2[C@@H](O)[C@H](O[C@H]3OC(CN)[C@@H](O)CC3N)C(N)C[C@H]2NC(=O)[C@@H](O)CCN)O[C@H](CO)[C@H]1O` (stereo partly drawn) [ABX5005, Tobra-AHB-Gua] the “MIC90” value (S. aureus ATCC 29213) was 1 µM (≈ 0.611 µg/mL), the “MIC90” value (P. aeruginosa ATCC 27853) was 4 µM (≈ 2.44 µg/mL) and the “MIC90” value [1] was 2 µM (≈ 1.22 µg/mL).
In the case of `NCC[C@H](O)C(=O)N[C@@H]1C[C@H](N)[C@@H](O[C@H]2O[C@H](CN)[C@@H](O)[C@@H](O)[C@H]2O)[C@H](O)[C@H]1O[C@H]1O[C@H](CO)[C@@H](O)[C@H](N)[C@H]1O` [ABX3002, 3′Epi-KanaA-AHB], the “MIC90” value (S. aureus ATCC 29213) is reported as 16 µM (≈ 9.37 µg/mL), the “MIC90” value (P. aeruginosa ATCC 27853) is reported as 32 µM (≈ 18.7 µg/mL) and the “MIC90” value [1] is reported as 32 µM (≈ 18.7 µg/mL).
In the case of `NCCC(O)C(=O)NC1CC(N)C(OC2OC(CN)C(O)C(O)C2O)C(F)C1OC1OC(CO)C(O)C(N)C1O` (stereo not drawn) [ABX3005, 3′Epi-KanaA-AHB-F], the “MIC90” value (S. aureus ATCC 29213) is reported as 4 µM (≈ 2.35 µg/mL), the “MIC90” value (P. aeruginosa ATCC 27853) is reported as 8 µM (≈ 4.7 µg/mL) and the “MIC90” value [1] is reported as 8 µM (≈ 4.7 µg/mL).
For `NCC[C@H](O)C(=O)N[C@@H]1CC(N)[C@@H](O[C@H]2OC(CN)[C@@H](O)CC2N)[C@H](F)C1OC1O[C@H](CO)[C@@H](O)C(N)[C@H]1O` (stereo partly drawn) [ABX5024, Tobra-AHB-F], the “MIC90” value (S. aureus ATCC 29213) was 1 µM (≈ 0.571 µg/mL), the “MIC90” value (P. aeruginosa ATCC 27853) was 2 µM (≈ 1.14 µg/mL) and the “MIC90” value [1] was 1 µM (≈ 0.571 µg/mL).
With `NCC[C@H](O)C(=O)N[C@@H]1CC(N)[C@@H](O[C@H]2OC(CN)[C@@H](O)CC2N)[C@H](O)C1OC1O[C@H](CO)[C@@H](O)C(N)[C@H]1O` (stereo partly drawn) [ABX5004, Tobra-AHB] the “MIC90” value (S. aureus ATCC 29213) was 1 µM (≈ 0.569 µg/mL), the “MIC90” value (P. aeruginosa ATCC 27853) was 4 µM (≈ 2.27 µg/mL) and the “MIC90” value [1] was 2 µM (≈ 1.14 µg/mL).
In the case of `NCC[C@H](O)C(=O)N[C@@H]1CC(N)[C@@H](O[C@H]2OC(CN)[C@@H](O)[C@@H](O)C2N)[C@H](F)C1OC1O[C@H](CO)[C@@H](O)C(N)[C@H]1O` (stereo partly drawn) [ABX4003, 3′Epi-KanaB-AHB-F], the “MIC90” value (S. aureus ATCC 29213) is reported as 4 µM (≈ 2.35 µg/mL), the “MIC90” value (P. aeruginosa ATCC 27853) is reported as 8 µM (≈ 4.69 µg/mL) and the “MIC90” value [1] is reported as 4 µM (≈ 2.35 µg/mL).
With `N=C(N)NC1[C@@H](O)C(OC2[C@@H](F)[C@H](O[C@H]3OC(CN)[C@@H](O)[C@H](O)C3O)C(N)C[C@H]2NC(=O)[C@@H](O)CCN)O[C@H](CO)[C@H]1O` (stereo partly drawn) [ABX3003, 3′epi-KanaA-AHB-F-Gua] the MIC90 (S. aureus ATCC 29213; [2]) was 2 µM (≈ 1.26 µg/mL), the MIC90 (P. aeruginosa ATCC 27853; [3]) was 8 µM (≈ 5.04 µg/mL) and the MIC90 [1, 4] was 4 µM (≈ 2.52 µg/mL).
With `N=C(N)N[C@@H]1[C@@H](O)[C@@H](O[C@@H]2[C@@H](O)[C@H](O[C@H]3O[C@H](CN)[C@@H](O)[C@@H](O)[C@H]3N)[C@@H](N)C[C@H]2NC(=O)[C@@H](O)CCN)O[C@H](CO)[C@H]1O` [ABX4005, 3′Epi-KanaB-AHB-Gua] the “MIC90” value (S. aureus ATCC 29213) was 2 µM (≈ 1.25 µg/mL), the “MIC90” value (P. aeruginosa ATCC 27853) was 4 µM (≈ 2.51 µg/mL) and the “MIC90” value [1] was 8 µM (≈ 5.01 µg/mL).
With `N=C(NCCCN)NC1[C@@H](O)C(OC2[C@@H](F)[C@H](O[C@H]3OC(CN)[C@@H](O)CC3N)C(N)C[C@H]2NC(=O)[C@@H](O)CCN)O[C@H](CO)[C@H]1O` (stereo partly drawn) [ABX5030, Tobra-AHB-F-Gua-3-amino-propyl] the MIC90 (S. aureus ATCC 29213; [2]) was 0.5 µM (≈ 0.335 µg/mL), the MIC90 (P. aeruginosa ATCC 27853; [3]) was 0.5 µM (≈ 0.335 µg/mL) and the MIC90 [1, 4] was 1 µM (≈ 0.67 µg/mL).
